Reference: PubChem BioAssay (NCI)
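48-hour exposure; five concentrations; linearly interpolated endpoints. Here, GI50 denotes the concentration required for 50% inhibition of growth. TGI denotes the concentration required for complete inhibition of growth.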

Legend:
Experiment in all cases: DTP human tumour cell line panel, 48 h
SK-MEL-2 melanoma = tested on: SK-MEL-2 melanoma
NCI-H226 lung = tested on: NCI-H226 lung
OVCAR-8 ovarian = tested on: OVCAR-8 ovarian
UACC-62 melanoma = tested on: UACC-62 melanoma
HS 578T breast = tested on: HS 578T breast
KM12 colon = tested on: KM12 colon
SNB-19 CNS = tested on: SNB-19 CNS
MDA-MB-435 = tested on: MDA-MB-435
NCI-H460 lung = tested on: NCI-H460 lung
T-47D breast = tested on: T-47D breast
IGROV1 ovarian = tested on: IGROV1 ovarian
SW-620 colon = tested on: SW-620 colon
HCC-2998 colon = tested on: HCC-2998 colon
OVCAR-5 ovarian = tested on: OVCAR-5 ovarian
SF-295 CNS = tested on: SF-295 CNS
CAKI-1 renal = tested on: CAKI-1 renal
EKVX NSCLC = tested on: EKVX NSCLC
DU-145 prostate = tested on: DU-145 prostate
RXF 393 renal = tested on: RXF 393 renal
TK-10 renal = tested on: TK-10 renal
HCT-116 colon = tested on: HCT-116 colon
OVCAR-3 ovarian = tested on: OVCAR-3 ovarian
LOX IMVI melanoma = tested on: LOX IMVI melanoma
SR leukemia = tested on: SR leukemia
A549 NSCLC = tested on: A549 NSCLC
SK-OV-3 ovarian = tested on: SK-OV-3 ovarian
BT-549 breast = tested on: BT-549 breast
A498 renal = tested on: A498 renal
MOLT-4 leukemia = tested on: MOLT-4 leukemia
ACHN renal = tested on: ACHN renal
HCT-15 colon = tested on: HCT-15 colon
HL-60(TB) leukemia = tested on: HL-60(TB) leukemia
NCI/ADR-RES ovarian = tested on: NCI/ADR-RES ovarian
HOP-92 NSCLC = tested on: HOP-92 NSCLC
M14 melanoma = tested on: M14 melanoma
NCI-H522 lung = tested on: NCI-H522 lung
MCF7 breast = tested on: MCF7 breast
HOP-62 NSCLC = tested on: HOP-62 NSCLC
SNB-75 CNS = tested on: SNB-75 CNS
NCI-H23 lung = tested on: NCI-H23 lung
SN12C renal = tested on: SN12C renal
SF-539 CNS = tested on: SF-539 CNS
UACC-257 melanoma = tested on: UACC-257 melanoma
HT29 colon = tested on: HT29 colon
U251 CNS = tested on: U251 CNS
SK-MEL-28 melanoma = tested on: SK-MEL-28 melanoma
K-562 leukemia = tested on: K-562 leukemia
PC-3 prostate = tested on: PC-3 prostate
MALME-3M melanoma = tested on: MALME-3M melanoma
RPMI-8226 leukemia = tested on: RPMI-8226 leukemia
SF-268 CNS = tested on: SF-268 CNS
COLO 205 colon = tested on: COLO 205 colon
OVCAR-4 ovarian = tested on: OVCAR-4 ovarian
MDA-MB-231 breast = tested on: MDA-MB-231 breast
786-0 renal = tested on: 786-0 renal
CCRF-CEM leukemia = tested on: CCRF-CEM leukemia
UO-31 renal = tested on: UO-31 renal

Q: For `CC(=O)O[C@@H]1C(=O)N(c2cnccn2)[C@H]1c1ccccc1[N+](=O)[O-]`, which GI50 (SK-MEL-2 melanoma) is on record?
A: 1960 nM

Q: What about the TGI (SK-MEL-2 melanoma) of the same compound?
A: > 100000 nM

Q: And the GI50 (NCI-H226 lung)?
A: 527 nM

Q: And the TGI (NCI-H226 lung)?
A: 9400 nM

Q: What about the GI50 (OVCAR-8 ovarian) of the same compound?
A: 299 nM

Q: What about the TGI (OVCAR-8 ovarian) of the same compound?
A: 946 nM

Q: What about the GI50 (UACC-62 melanoma) of the same compound?
A: 327 nM

Q: What about the TGI (UACC-62 melanoma) of the same compound?
A: 18800 nM

Q: And the GI50 (HS 578T breast)?
A: 920 nM

Q: What about the TGI (HS 578T breast) of the same compound?
A: > 100000 nM

Q: And the GI50 (KM12 colon)?
A: 362 nM

Q: And the TGI (KM12 colon)?
A: 19400 nM

Q: What about the GI50 (SNB-19 CNS) of the same compound?
A: 1860 nM

Q: What about the TGI (SNB-19 CNS) of the same compound?
A: > 100000 nM

Q: What about the GI50 (MDA-MB-435) of the same compound?
A: 205 nM

Q: What about the TGI (MDA-MB-435) of the same compound?
A: 456 nM

Q: What about the GI50 (NCI-H460 lung) of the same compound?
A: 346 nM

Q: What about the TGI (NCI-H460 lung) of the same compound?
A: 10800 nM

Q: What about the GI50 (T-47D breast) of the same compound?
A: 18500 nM

Q: What about the TGI (T-47D breast) of the same compound?
A: > 100000 nM

Q: What about the GI50 (IGROV1 ovarian) of the same compound?
A: 529 nM

Q: What about the TGI (IGROV1 ovarian) of the same compound?
A: 19000 nM

Q: And the GI50 (SW-620 colon)?
A: 396 nM

Q: And the TGI (SW-620 colon)?
A: 19300 nM

Q: What about the GI50 (HCC-2998 colon) of the same compound?
A: 2100 nM

Q: And the TGI (HCC-2998 colon)?
A: 10500 nM

Q: And the GI50 (OVCAR-5 ovarian)?
A: 550 nM

Q: What about the TGI (OVCAR-5 ovarian) of the same compound?
A: 16600 nM

Q: And the GI50 (SF-295 CNS)?
A: 865 nM

Q: And the TGI (SF-295 CNS)?
A: 12400 nM

Q: And the GI50 (CAKI-1 renal)?
A: 487 nM

Q: What about the TGI (CAKI-1 renal) of the same compound?
A: 13300 nM

Q: And the GI50 (EKVX NSCLC)?
A: 518 nM

Q: What about the TGI (EKVX NSCLC) of the same compound?
A: > 100000 nM

Q: What about the GI50 (DU-145 prostate) of the same compound?
A: 512 nM

Q: And the TGI (DU-145 prostate)?
A: > 100000 nM

Q: And the GI50 (RXF 393 renal)?
A: 520 nM

Q: What about the TGI (RXF 393 renal) of the same compound?
A: 3560 nM

Q: And the GI50 (TK-10 renal)?
A: 14000 nM

Q: What about the TGI (TK-10 renal) of the same compound?
A: 49900 nM

Q: What about the GI50 (HCT-116 colon) of the same compound?
A: 330 nM

Q: And the TGI (HCT-116 colon)?
A: 6770 nM

Q: And the GI50 (OVCAR-3 ovarian)?
A: 288 nM

Q: And the TGI (OVCAR-3 ovarian)?
A: 3300 nM

Q: And the GI50 (LOX IMVI melanoma)?
A: 283 nM

Q: And the TGI (LOX IMVI melanoma)?
A: 1690 nM

Q: And the GI50 (SR leukemia)?
A: 350 nM

Q: What about the TGI (SR leukemia) of the same compound?
A: > 100000 nM

Q: And the GI50 (A549 NSCLC)?
A: 410 nM

Q: And the TGI (A549 NSCLC)?
A: > 100000 nM

Q: And the GI50 (SK-OV-3 ovarian)?
A: 781 nM

Q: What about the TGI (SK-OV-3 ovarian) of the same compound?
A: > 100000 nM

Q: And the GI50 (BT-549 breast)?
A: 295 nM

Q: What about the TGI (BT-549 breast) of the same compound?
A: 1240 nM

Q: What about the GI50 (A498 renal) of the same compound?
A: > 100000 nM

Q: What about the TGI (A498 renal) of the same compound?
A: > 100000 nM

Q: And the GI50 (MOLT-4 leukemia)?
A: 452 nM

Q: What about the TGI (MOLT-4 leukemia) of the same compound?
A: > 100000 nM

Q: And the GI50 (ACHN renal)?
A: 596 nM

Q: And the TGI (ACHN renal)?
A: 17400 nM

Q: And the GI50 (HCT-15 colon)?
A: 421 nM

Q: What about the TGI (HCT-15 colon) of the same compound?
A: 14500 nM

Q: What about the GI50 (HL-60(TB) leukemia) of the same compound?
A: 288 nM

Q: And the GI50 (NCI/ADR-RES ovarian)?
A: 311 nM

Q: And the TGI (NCI/ADR-RES ovarian)?
A: 7510 nM

Q: And the GI50 (HOP-92 NSCLC)?
A: 356 nM

Q: What about the TGI (HOP-92 NSCLC) of the same compound?
A: 10900 nM

Q: And the GI50 (M14 melanoma)?
A: 323 nM

Q: What about the TGI (M14 melanoma) of the same compound?
A: 5980 nM

Q: What about the GI50 (NCI-H522 lung) of the same compound?
A: 184 nM

Q: What about the TGI (NCI-H522 lung) of the same compound?
A: 436 nM

Q: What about the GI50 (MCF7 breast) of the same compound?
A: 352 nM

Q: And the TGI (MCF7 breast)?
A: > 64200 nM

Q: And the GI50 (HOP-62 NSCLC)?
A: 1140 nM

Q: And the TGI (HOP-62 NSCLC)?
A: 18300 nM

Q: What about the GI50 (SNB-75 CNS) of the same compound?
A: 357 nM

Q: What about the TGI (SNB-75 CNS) of the same compound?
A: 3100 nM

Q: And the GI50 (NCI-H23 lung)?
A: 369 nM

Q: What about the TGI (NCI-H23 lung) of the same compound?
A: 13000 nM

Q: And the GI50 (SN12C renal)?
A: 432 nM

Q: And the TGI (SN12C renal)?
A: 13800 nM

Q: What about the GI50 (SF-539 CNS) of the same compound?
A: 234 nM

Q: What about the TGI (SF-539 CNS) of the same compound?
A: 575 nM

Q: What about the GI50 (UACC-257 melanoma) of the same compound?
A: 992 nM

Q: And the TGI (UACC-257 melanoma)?
A: 63000 nM

Q: What about the GI50 (HT29 colon) of the same compound?
A: 2540 nM

Q: What about the TGI (HT29 colon) of the same compound?
A: 6610 nM

Q: What about the GI50 (U251 CNS) of the same compound?
A: 366 nM

Q: And the TGI (U251 CNS)?
A: 10600 nM

Q: What about the GI50 (SK-MEL-28 melanoma) of the same compound?
A: 926 nM

Q: And the TGI (SK-MEL-28 melanoma)?
A: 27400 nM

Q: What about the GI50 (K-562 leukemia) of the same compound?
A: 341 nM

Q: What about the TGI (K-562 leukemia) of the same compound?
A: > 100000 nM

Q: What about the GI50 (PC-3 prostate) of the same compound?
A: 582 nM

Q: What about the TGI (PC-3 prostate) of the same compound?
A: 25700 nM

Q: What about the GI50 (MALME-3M melanoma) of the same compound?
A: 526 nM

Q: And the TGI (MALME-3M melanoma)?
A: 40900 nM

Q: And the GI50 (RPMI-8226 leukemia)?
A: 384 nM

Q: What about the TGI (RPMI-8226 leukemia) of the same compound?
A: 22800 nM

Q: And the GI50 (SF-268 CNS)?
A: 566 nM

Q: And the TGI (SF-268 CNS)?
A: > 69500 nM

Q: And the GI50 (COLO 205 colon)?
A: 3020 nM

Q: And the TGI (COLO 205 colon)?
A: 11800 nM

Q: And the GI50 (OVCAR-4 ovarian)?
A: 720 nM

Q: And the TGI (OVCAR-4 ovarian)?
A: > 100000 nM

Q: What about the GI50 (MDA-MB-231 breast) of the same compound?
A: 351 nM

Q: What about the TGI (MDA-MB-231 breast) of the same compound?
A: 4850 nM

Q: What about the GI50 (786-0 renal) of the same compound?
A: 551 nM

Q: And the TGI (786-0 renal)?
A: 13400 nM

Q: And the GI50 (CCRF-CEM leukemia)?
A: 435 nM

Q: What about the TGI (CCRF-CEM leukemia) of the same compound?
A: > 100000 nM

Q: What about the GI50 (UO-31 renal) of the same compound?
A: 616 nM

Q: What about the TGI (UO-31 renal) of the same compound?
A: 16300 nM
